Reference: patent publication US4659734A, “Olinecarboxylic acid derivatives” (Nippon Shinyaku Co., Ltd., priority 1983, dated 1987)
In brackets after ≈: the same amount, converted by molar mass. Entries after “also recorded” stand apart in the source; their conditions may differ.

Tests used:
[1] = Excretion into urine and recovery, disc method; type: in vivo, ddY strain mice; conditions: 60 mg/kg per os; for Amount excreted into Urine: average ± standard error
Experimental: In the measurement of excretion into urine, ddY strain mice (male; body weights 30±2 grams) were used. Sixty mg/kg of the compound of Example 22b was administered per os and the mice were fed in metabolic cages and their urine was collected.
Therefore, in the quantitative determination, the calibration curve of the compound of Example 21, calculated by the disc method using Escherichia coli NIHJ strain and using the compound dissolved in phosphoric acid buffer (pH 8.0; 1/15M) was used. Table 5 reports the excretion into urine with respect to time, total recovery amount and recovery rate of the compound of Example 22b.

[2] = Blood serum concentration, disc method; type: in vivo, ddY strain mice
Experimental: In this experiment, ddY strain mice (male; body weight 30±2 grams) were used. Sixty mg/kg of the compound of Example 22b were given per os. The blood concentration was calculated from calibration curves obtained by the disc method using Escherichia coli NIHJ strain as tested bacteria and diluting the test compound of mice serum.

[3] = test system: Klebsiella pneumoniae K-1966; experiment: Mouse intraperitoneal infection, survival after one week; type: in vivo, ddY strain mice; conditions: K1966, po; Klebsiella pneumoniae K-1966, 3 × 10^3 per mouse; one dose per os 2 h after infection
Experimental: (§1) ddY--Strain mice (male; body weight 20±1 grams) of SPF were innoculated with the bacteria set forth in Table 2 by administration of a supension of the bacterial in 4% mucin solution into the abdominal cavity. A compound of the invention was given one time per os two hours after the infection, and, from the survival rate after one week. 50% effective doses (ED50) were calculated by the Behrens-Karber method.

Proteus mirabilis 181 = experiment: as above; type: in vivo, ddY strain mice; conditions: po; Proteus mirabilis 181, 2 × 10^7 per mouse; one dose per os 2 h after infection
Experimental: as §1

[4] = test system: Acimetobacter calcoaceticus; experiment: as above; type: in vivo, ddY strain mice; conditions: po, 1 × 10^7 per mouse, one dose per os 2 h after infection
Experimental: as §1

Serracia marcescens T-55 = experiment: as above; type: in vivo, ddY strain mice; conditions: po; Serracia marcescens T-55, 5 × 10^6 per mouse; one dose per os 2 h after infection
Experimental: as §1

Escherichia coli KC-14 [5] = experiment: as above; type: in vivo, ddY strain mice; conditions: KC14, po; Escherichia coli KC-14, 5 × 10^4 per mouse; one dose per os 2 h after infection
Experimental: as §1

[6] = test system: Pseudomonas aeruginosa E-2; experiment: as above; type: in vivo, ddY strain mice; conditions: E2, po; Pseudomonas aeruginosa E-2, 2 × 10^5 per mouse; one dose per os 2 h after infection; Behrens-Karber
Experimental: as §1

[7] = test system: Staphylococcus aureus Smith; experiment: as above; type: in vivo, ddY strain mice; conditions: po, 3 × 10^6 per mouse, one dose per os 2 h after infection
Experimental: as §1

Acute toxicity = conditions: mouse, in vivo; oral, groups of ten ddY male mice; read-out: 50% Lethal Doses (LD50)
Experimental: Groups of ten ddY strain male mice (body weights: 20±1 grams) of the test compound were orally administered to determine the LD50. There was […] in which many mice died when the dose was 2000 mg/kg or less.

[8] = test system: Acinetobacter calcoacelicus 54; experiment: Minimum growth inhibiting concentration, Japan Chemotherapeutic Society method; type: cell-based; conditions: Acinetobacter calcoacelicus 54, Gram -; read-out: Minimum Growth Inhibiting Concn
Experimental: (§2) The Antibacterial activity of the compounds of Examples 14, 13, 22b, 21 and 15 was determined in accordance with the method of Japan Chemotherapeutic Society (cf. Nippon Kagaku Ryoho Gakkai Shi, volume 29, number 1, pages 76 to 79, 1981) and the results are reported in Table 1, which follows.

[9] = test system: Serracia marcescens IFO 3736; experiment: as above; type: cell-based; conditions: Serracia marcescens IFO 3736, Gram -; read-out: Minimum Growth Inhibiting Concn
Experimental: as §2

Escherichia coli KC-14 [10] = experiment: as above; type: cell-based; conditions: KC14; Escherichia coli KC-14, Gram -; read-out: Minimum Growth Inhibiting Concn
Experimental: as §2

[11] = test system: Pseudomonas maltophilia ATCC 13637; experiment: as above; type: cell-based; conditions: Stenotrophomonas maltophilia, ATCC13637; Pseudomonas maltophilia ATCC 13637, Gram -; read-out: Minimum Growth Inhibiting Concn
Experimental: as §2

[12] = test system: Pseudomonas cepacia ATCC 25416; experiment: as above; type: cell-based; conditions: Burkholderia cepacia, ATCC25416; Pseudomonas cepacia ATCC 25416, Gram -; read-out: Minimum Growth Inhibiting Concn
Experimental: as §2

[13] = test system: Staphylococcus aureus Smith; experiment: as above; type: cell-based; conditions: Gram +, read-out: Minimum Growth Inhibiting Concn
Experimental: as §2

[14] = test system: Micrococcus luteus ATCC 9341; experiment: as above; type: cell-based; conditions: ATCC9341; Micrococcus luteus ATCC 9341, Gram +; read-out: Minimum Growth Inhibiting Concn
Experimental: as §2

[15] = test system: Pseudomonas aeruginosa No. 12; experiment: as above; type: cell-based; conditions: Pseudomonas aeruginosa No. 12, Gram -; read-out: Minimum Growth Inhibiting Concn
Experimental: as §2

[16] = test system: Staphylococcus aureus 209-PJC; experiment: as above; type: cell-based; conditions: Gram +, read-out: Minimum Growth Inhibiting Concn
Experimental: as §2

[17] = test system: Streptococcus pneumoniae Type I; experiment: as above; type: cell-based; conditions: Gram +, 5% horse blood added agar medium, read-out: Minimum Growth Inhibiting Concn
Experimental: as §2, with “follows. | *5% Horse blood added agar medium for sensitivity measurement being used.” for “follows.”

[18] = test system: Streptococcus pyogenes S-23; experiment: as above; type: cell-based; conditions: S23; Streptococcus pyogenes S-23, Gram +; 5% horse blood added agar medium; read-out: Minimum Growth Inhibiting Concn
Experimental: as §2, with “follows. | *5% Horse blood added agar medium for sensitivity measurement being used.” for “follows.”

[19] = test system: Bacillus subtilis ATCC 6633; experiment: as above; type: cell-based; conditions: ATCC6633; Bacillus subtilis ATCC 6633, Gram +; 5% horse blood added agar medium; read-out: Minimum Growth Inhibiting Concn
Experimental: as §2, with “follows. | *5% Horse blood added agar medium for sensitivity measurement being used.” for “follows.”

Cc1csc2c(C(=O)O)c(=O)c3cc(F)c(N4CCN(C)CC4)cc3n12 [Example 22b, 7-fluoro-1-methyl-8-(4-methyl-1-piperazinyl)-5-oxo-5H-thiazolo(3,2-a)-quinoline-4-carboxylic acid]
Amount excreted into Urine ([1]; 0-3 hrs): 268.1 ± 84.4 µg
Total Recovery in urine ([1]; 0-24 hrs): 813.9 µg
excretion into urine (in words) ([1]; mice): excreted into urine almost completely; also recorded: excreted into urine promptly and in high concentration which is continued and exhibits high recovery rate
metabolism (in words) ([1]; mice): metabolized to the compound of Example 21
Amount excreted into Urine ([1]; 3-6 hrs): 108.3 ± 33.1 µg
Amount excreted into Urine ([1]; 6-24 hrs): 437.5 ± 21.8 µg
concentration at 0.25 h ([2]; mouse, serum, po, 0.25 hours, 60 mg/kg per os, average ± standard error): 3400 ± 820 ng/mL
concentration at 0.5 h ([2]; mouse, serum, po, 0.5 hours, 60 mg/kg per os, average ± standard error): 5400 ± 320 ng/mL
concentration at 1 h ([2]; mouse, serum, po, 1 hour, 60 mg/kg per os, average ± standard error): 4200 ± 700 ng/mL
concentration at 2 h ([2]; mouse, serum, po, 2 hours, 60 mg/kg per os, average ± standard error): 3300 ± 370 ng/mL
concentration at 4 h ([2]; mouse, serum, po, 4 hours, 60 mg/kg per os, average ± standard error): 2500 ± 230 ng/mL
blood concentration (in words) ([2]; oral, mice): promptly gave high and sustained blood concentrations when administered orally
ED50 [3]: 2.7 mg/kg
ED50 (Proteus mirabilis 181): 13 mg/kg
ED50 [4]: 17.5 mg/kg
ED50 (Serracia marcescens T-55): 5.4 mg/kg
ED50 (Escherichia coli KC-14 [5]): 1.1 mg/kg
ED50 [6]: 13.1 mg/kg
ED50 [7]: 2.4 mg/kg
LD50 (Acute toxicity): > 2000 mg/kg
MIC [8]: 0.2 µg/mL (≈ 0.533 µM)
MIC [9]: 0.39 µg/mL (≈ 1.04 µM)
MIC (Escherichia coli KC-14 [10]): 0.013 µg/mL (≈ 0.0346 µM)
MIC [11]: 0.025 µg/mL (≈ 0.0666 µM)
MIC [12]: 0.2 µg/mL (≈ 0.533 µM)
MIC [13]: 0.053 µg/mL (≈ 0.141 µM)
MIC [14]: 0.78 µg/mL (≈ 2.08 µM)
MIC [15]: 0.78 µg/mL (≈ 2.08 µM)
MIC [16]: 0.013 µg/mL (≈ 0.0346 µM)
MIC [17]: 0.39 µg/mL (≈ 1.04 µM)
MIC [18]: 0.2 µg/mL (≈ 0.533 µM)
MIC [19]: 0.8 ng/mL (≈ 0.00213 µM)
